From patent US9108951B2, “Substituted 5,6,7,8-tetrahydro-1,6-naphthyridines as factor XIa inhibitors” (BRISTOL-MYERS SQUIBB COMPANY, priority 2011, dated 2015)
Structures can show the parent of a compound that is named as a salt.

target: purified human Factor XIa (Homo sapiens (Human), UniProt P03951); test: Factor XIa assay (chromogenic substrate hydrolysis, Ki); format: biochemical; conditions: synthetic substrate S-2366, 50 mM HEPES pH 7.4
Experimental: The effectiveness of compounds of the present invention as inhibitors of the coagulation factors XIa, VIIa, IXa, Xa, XIIa, plasma kallikrein or thrombin, can be determined using a relevant purified serine protease, respectively, and an appropriate synthetic substrate. The rate of hydrolysis of the chromogenic or fluorogenic substrate by the relevant serine protease was measured both in the absence and presence of compounds of the present invention. […] A decrease in the rate of absorbance or fluorescence change in the presence of inhibitor is indicative of enzyme inhibition. Such methods are known to one skilled in the art. The results of this assay are expressed as the inhibitory constant, Ki.
Values of Ki were determined by allowing the protease to react with the substrate in the presence of the inhibitor. Reactions were allowed to go for periods of 20-180 minutes (depending on the protease) and the velocities (rate of absorbance or fluorescence change versus time) were measured. The following relationships were used to calculate Ki values: (vo−vs)/vs=I/(Ki(1+S/Km)) for a competitive inhibitor with one binding site; or vs/vo=A+((B−A)/1+((IC50/(I)n))); and Ki=IC50/(1+S/Km) for a competitive inhibitor where: […]

Sequence of purified human Factor XIa (P03951 388-625): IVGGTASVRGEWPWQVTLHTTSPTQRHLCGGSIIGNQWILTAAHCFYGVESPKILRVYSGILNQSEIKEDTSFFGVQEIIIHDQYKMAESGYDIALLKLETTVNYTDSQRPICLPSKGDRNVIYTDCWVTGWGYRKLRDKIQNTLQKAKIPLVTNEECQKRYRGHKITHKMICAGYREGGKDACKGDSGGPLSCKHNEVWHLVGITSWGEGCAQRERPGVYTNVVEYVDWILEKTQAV
Sequence of purified human Factor XIa (P03951 19-387 partner): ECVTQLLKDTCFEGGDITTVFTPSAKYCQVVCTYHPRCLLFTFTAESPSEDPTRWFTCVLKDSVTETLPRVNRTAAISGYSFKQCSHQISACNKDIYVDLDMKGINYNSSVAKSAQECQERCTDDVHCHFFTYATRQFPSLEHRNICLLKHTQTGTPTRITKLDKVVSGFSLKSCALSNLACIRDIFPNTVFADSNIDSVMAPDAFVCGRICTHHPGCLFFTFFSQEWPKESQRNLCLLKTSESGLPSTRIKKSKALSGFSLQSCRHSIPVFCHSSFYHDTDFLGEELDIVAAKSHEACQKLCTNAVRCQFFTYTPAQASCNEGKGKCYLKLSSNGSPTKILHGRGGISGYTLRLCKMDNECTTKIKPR

| Ki [nM] | Compound |
| --- | --- |
| 6730 | O=C(Nc1ccc(C2CCCN2)cc1)[C@@H]1c2ccccc2CCN1C(=O)/C=C/c1cc(Cl)ccc1-n1cnnn1 (stereo partly drawn) [Example 40, (1S)-2-((E)-3-(5-Chloro-2-(1H-tetrazol-1-yl)phenyl)acryloyl)-N-(4-(pyrrolidin-2-yl)phenyl)-1,2,3,4-tetrahydroisoquinoline-1-carboxamide, TFA salt] |
| 7.08 | O=C(O)c1ccc(NC(=O)[C@@H]2c3ccccc3CCN2C(=O)C#Cc2cc(Cl)ccc2-n2cnnn2)cc1 [Example 48, (S)-4-(2-(3-(5-Chloro-2-(1H-tetrazol-1-yl)phenyl)propioloyl)-1,2,3,4-tetrahydroisoquinoline-1-carboxamido)benzoic acid] |
| 172 | CC1(C)CN(C(=O)/C=C/c2cc(Cl)ccc2-n2cnnn2)C(C(=O)Nc2ccc(C(=O)O)cc2)c2c(Br)cccc21 (centres unmarked) [Example 55, (E)-4-(8-bromo-2-(3-(5-chloro-2-(1H-tetrazol-1-yl)phenyl)acryloyl)-4,4-dimethyl-1,2,3,4-tetrahydroisoquinoline-1-carboxamido)benzoic acid] |

Continued, molecule first:

| Compound | Ki [nM] |
| --- | --- |
| NC(=O)c1ccc(-c2nccc3c2CCN(C(=O)/C=C/c2c(-n4cnnn4)ccc(Cl)c2F)C3C(=O)Nc2ccc3cn[nH]c3c2)cc1 (centres unmarked) [Example 23, (E)-5-(4-Carbamoylphenyl)-2-(3-(3-chloro-2-fluoro-6-(1H-tetrazol-1-yl)phenyl)acryloyl)-N-(1H-indazol-6-yl)-1,2,3,4-tetrahydro-2,6-naphthyridine-1-carboxamide, TFA salt] | < 5 |
| Cc1[nH]nc2c1C(C(=O)Nc1ccc(C(=O)O)cc1)N(C(=O)/C=C/c1c(-n3cnnn3)ccc(Cl)c1F)CC2 (centres unmarked) [Example 77, (E)-4-(5-(3-(3-chloro-2-fluoro-6-(1H-tetrazol-1-yl)phenyl)acryloyl)-3-methyl-4,5,6,7-tetrahydro-2H-pyrazolo[4,3-c]pyridine-4-carboxamido)benzoic acid, TFA salt] | 5.02 |
| O=C(O)c1ccc(NC(=O)C2c3ccnc(N4CCOCC4)c3CCN2C(=O)/C=C/c2c(-n3cnnn3)ccc(Cl)c2F)cc1 (centres unmarked) [Example 28, (E)-4-(2-(3-(3-Chloro-2-fluoro-6-(1H-tetrazol-1-yl)phenyl)acryloyl)-5-morpholino-1,2,3,4-tetrahydro-2,6-naphthyridine-1-carboxamido)benzoic acid, TFA Salt] | < 5 |
| CCc1nn(C)c2c1C(C(=O)Nc1ccc(C(=O)O)cc1)N(C(=O)/C=C/c1cc(Cl)ccc1-n1cnnn1)CC2 (centres unmarked) [Example 65, (E)-4-(5-(3-(5-Chloro-2-(1H-tetrazol-1-yl)phenyl)acryloyl)-3-ethyl-1-methyl-4,5,6,7-tetrahydro-1H-pyrazolo[4,3-c]pyridine-4-carboxamido)benzoic acid, TFA salt] | 23.3 |
| Cc1[nH]nc2c1C(C(=O)Nc1ccc(C(=O)OC(C)(C)C)cc1)N(C(=O)/C=C/c1c(-n3cnnn3)ccc(Cl)c1F)CC2 (centres unmarked) [Example 76, (E)-tert-butyl 4-(5-(3-(3-chloro-2-fluoro-6-(1H-tetrazol-1-yl)phenyl)acryloyl)-3-methyl-4,5,6,7-tetrahydro-2H-pyrazolo[4,3-c]pyridine-4-carboxamido)benzoate, TFA salt] | 566 |
